Assay results as given in publication PMC6745501, “Plant photoreceptors and their signaling components compete for COP1 binding via VP peptide motifs” (The EMBO Journal, 2019).
Values joined by “and” are separate entries in the source; they are usually repeats but may differ in a detail not shown here. Equal values may be shown once.

Assays:
[1] = biological target: T1, Arabidopsis COP1^349–675 WD40 domain (Arabidopsis thaliana, UniProt P43254); test: Isothermal titration calorimetry (ITC) versus the COP1 WD40 domain; assay type: binding; conditions: for N (stoichiometry of binding), VP peptide vs. COP1 WD40 domain (WT): peptide into COP1, 25°C, one-site binding model, ± standard deviation
T1 construct: His10-Twin-Strep with TEV site (N, cleaved yes); made in house; host or cells: Spodoptera frugiperda Sf9 insect cells (baculovirus, modified pFastBac)
T1 sequence (P43254 349-675): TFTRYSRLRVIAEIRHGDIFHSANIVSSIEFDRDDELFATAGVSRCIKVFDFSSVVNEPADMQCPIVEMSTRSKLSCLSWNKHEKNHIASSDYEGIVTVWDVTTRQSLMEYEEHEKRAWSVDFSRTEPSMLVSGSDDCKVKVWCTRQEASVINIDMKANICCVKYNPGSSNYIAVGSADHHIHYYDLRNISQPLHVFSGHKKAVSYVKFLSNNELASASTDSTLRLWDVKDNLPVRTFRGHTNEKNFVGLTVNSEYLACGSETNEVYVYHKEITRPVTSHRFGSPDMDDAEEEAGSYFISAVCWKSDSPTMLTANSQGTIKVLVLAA
Method: All experiments were performed in a buffer containing 150 mM NaCl, 20 mM HEPES 7.4, and 2 mM BME. Peptides were synthesized and delivered as lyophilized powder (Peptide Specialty Labs GmbH) and dissolved directly in buffer. The peptides were centrifuged at 14,000 × g for 10 min, and only the supernatant was used. […] Experiments were performed at 25°C and a stirring speed of 1,000 rpm on an ITC200 instrument (GE Healthcare). All data were processed using Origin 7.0 and fit to a one‐site binding model after background buffer subtraction.

[2] = biological target: T2, COP1^Lys422Ala WD40 domain (Arabidopsis thaliana, UniProt P43254, K422A); test: biochemical; assay type: binding; conditions: for N (stoichiometry of binding), VP peptide vs. COP1^Lys422Ala: peptide into COP1^Lys422Ala, 25°C, ± standard deviation
T2 construct: His10-Twin-Strep with TEV site (N, cleaved yes); made in house; host or cells: Spodoptera frugiperda Sf9 insect cells (baculovirus, modified pFastBac)
Method: (§1) All experiments were performed in a buffer containing 150 mM NaCl, 20 mM HEPES 7.4, and 2 mM BME. […] The peptides were centrifuged at 14,000 × g for 10 min, and only the supernatant was used. The dissolved peptide concentrations were calculated based upon their absorbance at 280 nm and their corresponding molar extinction coefficient. […] Experiments were performed at 25°C and a stirring speed of 1,000 rpm on an ITC200 instrument (GE Healthcare). All data were processed using Origin 7.0 and fit to a one‐site binding model after background buffer subtraction.

[3] = biological target: T3, COP1^Tyr441Ala WD40 domain (Arabidopsis thaliana, UniProt P43254, Y441A); assay type: binding; conditions: ITC, peptide into COP1^Tyr441Ala, 25°C; ± standard deviation
T3 construct: His10-Twin-Strep with TEV site (N, cleaved yes); made in house; host or cells: Spodoptera frugiperda Sf9 insect cells (baculovirus, modified pFastBac)
Method: as §1

COP1 WD40 domain [4] = test: Grating-coupled interferometry (GCI) binding kinetics versus the COP1 WD40 domain; design: species or system Arabidopsis; conditions: ligand COP1 (2000 pg/mm2), analyte in the absence of UV-B (ground state), highest concentration 2 μM, 1:1 binding model, read-out: Kd (dissociation constant), - UV-B
Method: For CRY2 activation, proteins were diluted to their final assay concentrations (as indicated in the figure legends) in Eppendorf tubes and exposed to 10 min of fluorescent light on ice.
The Creoptix WAVE system (Creoptix AG), a label‐free surface biosensor, was used to perform GCI experiments. All experiments were performed on 2PCH or 4PCH WAVEchips (quasi‐planar polycarboxylate surface; Creoptix AG). After a borate buffer conditioning (100 mM sodium borate pH 9.0, 1 M NaCl; Xantec), COP1 (ligand) was immobilized on the chip surface using standard amine‐coupling: 7 min activation [1:1 mix of 400 mM N‐(3‐dimethylaminopropyl)‐N′‐ethylcarbodiimide hydrochloride and 100 mM N‐hydroxysuccinimide (both Xantec)], injection of COP1 (10 μg/ml) in 10 mM sodium acetate pH 5.0 (Sigma) until the desired density was reached, and final quenching with 1 M ethanolamine pH 8.0 for 7 min (Xantec). […] Blank injections were used for double referencing and a dimethyl sulfoxide (DMSO) calibration curve for bulk correction. Analysis and correction of the obtained data were performed using the Creoptix WAVEcontrol software (applied corrections: X and Y offset; DMSO calibration; double referencing), and a one‐to‐one binding model or a heterogenous ligand model with bulk correction was used to fit all experiments.

COP1 WD40 domain [5] = test: Analytical size-exclusion chromatography binding assay; design: species or system Arabidopsis; conditions: Superdex 200 Increase 10/300 GL, ~4 μM per protein
Method: 500 μl of the respective protein solution or a mixture (~ 4 μM per protein) was loaded sequentially onto the column, and elution at 0.75 ml/min was monitored by UV absorbance at 280 nm.

T2 sequence (P43254 349-675 K422A): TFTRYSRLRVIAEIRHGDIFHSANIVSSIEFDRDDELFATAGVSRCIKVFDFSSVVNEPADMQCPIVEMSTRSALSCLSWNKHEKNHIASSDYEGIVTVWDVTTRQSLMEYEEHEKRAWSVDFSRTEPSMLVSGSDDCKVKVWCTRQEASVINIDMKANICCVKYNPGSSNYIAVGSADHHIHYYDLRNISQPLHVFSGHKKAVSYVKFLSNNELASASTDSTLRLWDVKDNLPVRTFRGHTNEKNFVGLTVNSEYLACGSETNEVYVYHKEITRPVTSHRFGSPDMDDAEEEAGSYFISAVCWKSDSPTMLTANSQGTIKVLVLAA
T3 sequence (P43254 349-675 Y441A): as the sequence (P43254 349-675 K422A) above, with A74K, Y93A counted along it

Ac-EDQMVPSITY-NH2 [CRY1 peptide]
N (stoichiometry of binding), VP peptide vs. COP1 WD40 domain (WT) ([1]; ITC): 0.99 ± 0.3
N (stoichiometry of binding), VP peptide vs. COP1^Lys422Ala ([2]; ITC): 0.98 ± 0.1

Ac-EIRRVPEFGGY-NH2 [HY5 peptide]
Kd [1]: 23 ± 7 µM
Times stronger binding to COP1 than UVR8^406–413 ([1]; ITC, ratio of Kd values): ~ 8
N (stoichiometry of binding), VP peptide vs. COP1^Tyr441Ala [3]: 0.92 ± 0.3
Kd [2]: 23 ± 10 µM
N (stoichiometry of binding), VP peptide vs. COP1^Lys422Ala ([2]; ITC): 0.83 ± 0.2

Ac-GFGVVPSFY-NH2 [COL3 peptide]
N (stoichiometry of binding), VP peptide vs. COP1 WD40 domain (WT) ([1]; ITC): 0.75 ± 0.2
N (stoichiometry of binding), VP peptide vs. COP1^Lys422Ala ([2]; ITC): 0.90 ± 0.2

Ac-GYGIVPSFY-NH2 [CO peptide]
N (stoichiometry of binding), VP peptide vs. COP1 WD40 domain (WT) ([1]; ITC): 1.03 ± 0.00
Kd [2]: 21 ± 10 µM
N (stoichiometry of binding), VP peptide vs. COP1^Lys422Ala ([2]; ITC): 0.89 ± 0.03
Fold increase of binding affinity for COP1^Lys422Ala compared with wild type COP1 ([2]; ITC, ratio of Kd values): ~ 4

Ac-NDQQVPSAVY-NH2 [CRY2 peptide]
Kd [1]: 21 ± 2 µM
N (stoichiometry of binding), VP peptide vs. COP1 WD40 domain (WT) ([1]; ITC): 1.04 ± 0.20
Times reduction of binding by the COP1^Lys422Ala mutation compared with wild type COP1 ([2]; ITC, ratio of Kd values): ~ 30

Ac-RYAVVPDE-NH2 [UVR8 peptide]
N (stoichiometry of binding), VP peptide vs. COP1^Lys422Ala ([2]; ITC): 0.87 ± 0.2
Fold increase of binding affinity for COP1^Lys422Ala compared with wild type COP1 ([2]; ITC, ratio of Kd values): ~ 10

UVR8: recombinant full-length Arabidopsis UV-B photoreceptor UVR8 expressed in insect cells
Kd (COP1 WD40 domain [4]): ~1 µM and 1.3 µM
Interaction with the COP1 WD40 domain in size-exclusion chromatography, UV-B-activated (COP1 WD40 domain [5]; 150 mM NaCl, 20 mM HEPES 7.4, 2 mM BME, protein pre-monomerized by UV-B): interact
Interaction with the COP1 WD40 domain in size-exclusion chromatography, non-activated (COP1 WD40 domain [5]; absence of UV-B (dimer)): no interaction
